# Assay results taken from the supplement of paper PMC8967900.
# Key:
# Assay in all cases: selective drug sensitivity score (sDSS, relative to normal bone marrow) (sDSS (score)); higher = more potent and effective on the cell line relative to normal bone marrow cells
# Details in all cases: 72 h
# [1] = tested on: 380
# [2] = tested on: 697
# [3] = tested on: CCRF-CEM
# [4] = tested on: CCRF-HSB2
# [5] = tested on: COG-LL-332h
# [6] = tested on: COG-LL-394h
# [7] = tested on: COG-LL-402h
# [8] = tested on: HAL-01
# [9] = tested on: KASUMI-10
# [10] = tested on: KASUMI-2
# [11] = tested on: KASUMI-9
# [12] = tested on: KOPN-8
# [13] = tested on: MHH-CALL-2
# [14] = tested on: MHH-CALL-3
# [15] = tested on: MHH-CALL-4
# [16] = tested on: MN-60
# [17] = tested on: NALL-1
# [18] = tested on: NALM-16
# [19] = tested on: P30-OHKUBO
# [20] = tested on: PF-382
# 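Note: ALL cell lines in 384-well plates, five doses spanning 10,000-fold, each plate scaled between vehicle and 100 µmol/L benzalkonium chloride controls, sDSS an adapted area-under-curve metric.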
SMILES,selective drug sensitivity score [1],selective drug sensitivity score [2],selective drug sensitivity score [3],selective drug sensitivity score [4],selective drug sensitivity score [5],selective drug sensitivity score [6],selective drug sensitivity score [7],selective drug sensitivity score [8],selective drug sensitivity score [9],selective drug sensitivity score [10],selective drug sensitivity score [11],selective drug sensitivity score [12],selective drug sensitivity score [13],selective drug sensitivity score [14],selective drug sensitivity score [15],selective drug sensitivity score [16],selective drug sensitivity score [17],selective drug sensitivity score [18],selective drug sensitivity score [19],selective drug sensitivity score [20]
NS(=O)(=O)NCCNc1nonc1/C(=N/O)Nc1ccc(F)c(Br)c1 [Epacadostat] (top concentration 10000 nM),-0.26,-0.26,-0.26,-0.26,-0.26,-0.26,-0.26,0.84,-0.06,-0.26,0.74,2.44,1.64,-0.26,4.24,1.44,3.74,-0.26,-0.06,-0.26
CCOc1ccccc1-n1c(C(C)N2CCN(C(=O)COc3ccc(Cl)cc3)CC2)nc2ccccc2c1=O (stereo not given) [Erastin] (top concentration 10000 nM),24.8,20.1,9.34,10.6,12.7,-0.76,7.64,18.5,-4.36,19.4,7.74,18.8,6.34,24.4,6.44,-6.86,6.64,9.34,9.54,21
COc1cc(OC)cc(N(CCNC(C)C)c2ccc3ncc(-c4cnn(C)c4)nc3c2)c1 [Erdafitinib] (top concentration 1000 nM),-0.56,-0.06,-0.56,3.04,-0.46,-0.56,0.04,6.94,-0.06,-0.56,0.34,-0.56,8.24,0.64,-0.46,-0.56,5.34,-0.56,1.74,-0.56
CC(C)(C)NC(=O)[C@H]1CC[C@H]2[C@@H]3CC[C@H]4NC(=O)C=C[C@]4(C)[C@H]3CC[C@]12C [Finasteride] (top concentration 10000 nM),-0.52,-0.52,-0.52,-0.52,-0.52,-0.52,-0.52,1.08,-0.42,0.78,-0.12,8.18,0.98,-0.52,1.88,-0.52,3.48,-0.52,-0.52,-0.52
O=c1[nH]c(=O)n([C@H]2C[C@H](O)[C@@H](CO)O2)cc1F [Floxuridine] (top concentration 10000 nM),37.9,35.8,31.1,4.42,26.1,3.62,28.2,23.7,29.7,33.4,29,37.3,24.2,26.3,22.6,10.3,21,10.2,37,9.82
CNc1nc(Nc2cn(C(C)(C)C#N)nc2C)ncc1C(F)(F)F [GNE-0877] (top concentration 1000 nM),0,0,0,0,0,0,0,0,0,1,0,0,0,0,0,0,0,0,0,0
CCCc1cc(C)[nH]c(=O)c1CNC(=O)c1cc(-c2ccnc(N3CCN(C)CC3)c2)cc2c1cnn2C(C)C [GSK343] (top concentration 1000 nM),0,0,0,0,0,0.1,0,0,0,0,0,0,0,0,0,0,0,0,0,0
O=C(O)c1ccc(O)c2ncccc12 [IOX-1] (top concentration 100000 nM),8.64,5.64,3.74,5.34,7.54,-1.56,3.64,3.34,1.54,2.04,2.94,2.84,3.64,0.24,2.24,4.54,2.24,4.64,3.04,4.44
CC(=O)[C@]1(O)Cc2c(O)c3c(c(O)c2[C@@H](O[C@H]2C[C@H](N)[C@H](O)[C@H](C)O2)C1)C(=O)c1ccccc1C3=O [Idarubicin] (top concentration 1000 nM),13.7,8.84,8.84,12.3,10,7.94,14.9,7.24,8.14,11.5,4.94,8.74,8.04,14.6,7.64,-2.26,-3.66,-2.56,3.94,1.24
COc1cc2nccc(Oc3ccc(NC(=O)NC4CC4)c(Cl)c3)c2cc1C(N)=O [Lenvatinib] (top concentration 2500 nM),0.06,2.16,0.16,5.06,1.66,0.26,1.56,0.76,1.86,-0.14,1.36,0.86,1.46,-0.24,-0.24,-0.24,-0.24,-0.24,-0.14,-0.24
